Test [1] has as its system heart. The following applies: in vivo; cited from earlier work.
In test [2] the test system is neutrophil accumulation in lung graft. Description: lung graft myeloperoxidase, nitroglycerin series. Format: in vivo, rat. The following applies: NTG 0.1 mg/mL in EC, 6 h. How it is done:
Thirty minutes following ligation of the native right pulmonary artery, or at the time of recipient death, transplanted lungs were removed, rinsed briskly in physiologic saline, and snap frozen in liquid nitrogen until the time of myeloperoxidase or TBARs assay.
Tissue was homogenized in phosphate buffer (50 mM, pH 5.5, 5 ml/gm of tissue) containing hexadecyltrimethyl ammonium bromide (0.5%, Sigma). The assay was performed, as previously described^35, by thawing the sample, centrifuging at 40,000 g for 15 minutes, and decanting the supernatant, which was assayed for myeloperoxidase activity using a standard chromogenic spectrophotometric technique in which test sample (0.03 mL) was added to phosphate buffer (0.97 mL) containing O-dianisidinedihydrochloride (Sigma) and hydrogen peroxide (0.0005%), and change in absorbance at 460 nm was measured over 1 minute (increase in OD was linear over this time interval).

In test [3] the test system is cGMP. Kind of test: tissue cGMP levels (radioimmunoassay, unpublished). The following applies: NTG in preservation solution.
Test [4] has as its system neutrophil infiltration of cardiac graft. Kind of test: graft myeloperoxidase activity/histology, nitric oxide series. The format is in vivo, rat. The settings on record: 12 h; NTG 0.1 mg/ml in LR. How it is done: Ten minutes following restoration of blood flow, transplanted hearts were excised and the aortic root was flushed for 5 minutes (rate of 2 ml/minute controlled by roller pump) with normal saline (Baxter, Edison, N.J.), the atria and great vessels were removed, and intracavitary blood was evacuated. Remaining ventricular pieces were weighed, homogenized, and myeloperoxidase activity measured as described^10. For histologic study, cardiac graft samples were fixed in an ascending series of aldehydes, embedded, sectioned, and stained with hematoxylin and eosin.

Test [5] relates to cGMP-dependent protein kinase. The following applies: vs cAMP-dependent protein kinase; cited from earlier work.
For test [6], the system named is cGMP-regulated phosphodiesterases. The settings on record: cited from earlier work.
The subject of test [7] is lung. Description: orthotopic rat left lung transplantation, cGMP series (hemodynamics, oxygenation, recipient survival). The format is in vivo, rat (male Lewis). How it is done: Orthotopic rat left lung transplantation was accomplished using inbred male Lewis rats (250-300 gms), using a modification of a previously described technique^29. The donor rat was anesthetized and heparinized (500 U intravenously), and endotracheal intubation was performed by inserting a 16 gauge angiocatheter into the trachea using blunt cervical dissection, after which the rat was ventilated with room air at a constant rate (100 breaths/minute) and tidal volume (2.5 ml), using a Harvard rodent ventilator. […] The pulmonary artery (PA) and pulmonary vein (PV) were divided, the bronchus ligated with the lung partially inflated and then divided, and the lung removed. The vascular stumps were each pulled through a small plastic cylinder, and a lip of vessel was turned back around the edge and secured in place with a suture to form a "cuff." A small plastic cylinder was inserted into the bronchial stump and secured, and the lung was then wrapped in gauze and submerged in cold preservation solution for the desired interval.
The recipient rat (gender/size/strain-matched) was similarly anesthetized and intubated (ventilated with 100% oxygen), but not heparinized. A left thoracotomy was performed, the hilum was dissected, and the left bronchus, PA, and PV were isolated, cross-clamped, divided and the native lung was removed from the field. The PA and PV stumps were rinsed with heparinized saline to remove any clot. The donor lung was brought onto the surgical field, and the cylinder (bronchus) and cuffs (PA and PV) were connected rapidly to their respective structures with a simple staying suture. This cuff technique permitted rapid approximation of donor and recipient tissues with no contact of a foreign substance with the luminal vascular surface. The hilar cross-clamp was released, re-establishing blood flow, and the bronchus tie was removed, enabling gas exchange. A snare was then passed around the right PA, and a Millar catheter (2F; Millar Instruments,Houston, Tex.) was introduced through a small hole (surrounded by a pursestring) into the main PA; similarly, a Millar catheter was introduced into the left atrium (LA). A flow probe (Transonics, Ithaca, N.Y.) was then placed around the main PA. Arterial blood gas sampling performed via the left femoral artery.
Online hemodynamic monitoring was accomplished using MacLab and a Macintosh IIci computer. The hemodynamic parameters that were measured included PA pressure (mm Hg), blood flow (ml/min), LA pressure (mm Hg), as well as arterial oxygen tension (mm Hg) during inspiration of 100% oxygen; pO2 was analyzed with a model ABL-2 dissolved gas analyzer (Radiometer, Copenhagen, Denmark). Pulmonary vascular resistances (PVRs) were calculated as [mean PA pressure-LA pressure]/PA flow. The native lung supported the recipient during the period of warm ischemia (the period during which the donor lung was removed from cold preservation until the time of reperfusion, <10 min. in all instances), but immediately following rapid hemodynamic instrumentation and acquisition of baseline measurements, the native (right) PA was then ligated, and serial measurements (representative solely of the transplanted lung) were taken every five minutes for 30 minutes. Because the native lung was effectively removed from the circulation by ligation of the right PA, these measurements represent function of the transplanted lung. Recipient death was identified by the cessation of cardiac mechanical activity observed through the thoracotomy.
Preservation solutions were freshly made and coded by a technician not otherwise involved in the experiments, according to a general plan which included both control and experimental groups. […]

Test [8] deals with neutrophil infiltration of lung graft. Kind of test: lung graft myeloperoxidase assay, cGMP series. The following applies: 6 h in EC then transplantation. Format: in vivo, rat. As to the method:
Thirty minutes following restoration of blood flow, transplanted lungs were excised, rinsed briskly in physiologic saline, and snap frozen in liquid nitrogen until the time of assay. These lungs were then homogenized in phosphate buffer (50 mM; pH 6.0, 5 ml/gm of tissue) containing hexadecyltrimethylammonium bromide (0.5%; HTAB, [Sigma]) and frozen at -80° C. The myeloperoxidase assay was performed, as described^32, by thawing the sample, centrifuging at 40,000 g for 15 minutes at 4° C., and decanting the supernatant, which was assayed for myeloperoxidase activity using standard chromogenic spectrophotometric technique: test sample (0.03 ml) was added to sample buffer (0.97 ml of 50 mM phosphate buffer, pH 6.0) containing O-dianisidine dihydrochloride (Sigma), hydrogen peroxide (0.006%), and change in absorbance at 460 nm was measured over 1 min (increase in OD was linear over this time interval).

The mark [9] stands for this setting: 6 h in EC, 8-Br-cGMP 0.5 mM where added.

For `O=[N+]([O-])OCC(CO[N+](=O)[O-])O[N+](=O)[O-]` [NTG, nitroglycerin], the “effect in cardiac ischemia models” value in test [1] was “blunt myocardial injury and neutrophil accumulation during reperfusion”. The “graft neutrophil accumulation” value in test [2] was “significant decline in both neutrophil and platelet accumulation”. Moreover, the “tissue cGMP levels” value in test [3] is recorded as “augments tissue cGMP levels”. The “neutrophil infiltration” value in test [4] is “marked decrease in neutrophil infiltration”.
Regarding `Nc1nc2c(nc(Br)n2[C@@H]2O[C@@H]3COP(=O)(O)O[C@H]3[C@H]2O)c(=O)[nH]1` [8-Br-cGMP, 8-bromoguanosine-3'5' cyclic monophosphate], in test [5], the “times more potent at stimulating cGMP- than cAMP-dependent protein kinase” value is given as 500 times. The “interaction with allosteric binding sites” value in test [6] is reported as “does not interact with the allosteric binding sites”. In test [7] (4 h preservation in LR), this compound displayed a recipient survival of 86%. Besides, in test [7] (setting [9]), the arterial oxygenation amounted to 474±41 mm Hg, the “pulmonary arterial blood flow” value turned out to be 26 ± 2.3 mL/min, the pulmonary vascular resistance is 1.1±0.14 Woods units×10^-3 and the recipient survival amounted to 100%. Further, the “concentration of maximal beneficial effect” value in test [7] (range 0.005 to 0.5 mM, 6 h in EC) came to 0.5 mM. Further, the “myeloperoxidase activity (dAbs 460 nm/min)” value in test [8] is 1.75±0.13 dAbs 460 nm/min.

Values taken from US5552267A, “Solution for prolonged organ preservation” (priority 1994, dated 1996).
